Test results published in patent publication US9926324B2, “Heteroaromatic compounds as PI3 kinase modulators and methods of use” (Calitor Sciences, LLC, priority 2012, dated 2018).

Columns and labels:
[1] = Pharmacokinetic profiles in mice after intravenous and oral administration; type: in vivo; details: Mouse; for F: oral dose generally 5 or 10 mg/kg; for AUC(0-t) / half-life / Vd: plasma; for Vd: read-out: Vss
Procedure: (§1) The compounds disclosed herein are assessed in pharmacokinetic studies in mice, rats, dogs or monkeys. The compounds are administered as a water solution, 2% HPMC+1% TWEEN® 80 in water solution, 5% DMSO+5% solutol in saline, 4% MC suspension or capsule. For the intravenous administration, the animals are generally given at 1 or 2 mg/kg dose. For the oral (p.o.) dosing, mice and rats are generally given 5 or 10 mg/kg dose, and dogs and monkeys are generally given 10 mg/kg dose. The blood samples (0.3 mL) are drawn at 0.25, 0.5, 1.0, 2.0, 3.0, 4.0, 6.0, 8.0, 12 and 24 h time points or 0.083, 0.25, 0.5, 1.0, 2.0, 4.0, 6.0, 8.0 and 24 h time points and centrifuged at 3,000 or 4000 rpm for 2 to 10 min. The plasma solutions are collected, stored at −20° C. or −70° C. until analyzed by LC/MS/MS as described above.

[2] = Pharmacokinetic profiles in dogs after intravenous and oral administration; type: in vivo; details: Dog; for F: iv dose 1 mg/kg, oral dose generally 10 mg/kg; for Clearance (CL) / AUC(0-t) / half-life / Vd: iv dosing 1 mg/kg; for AUC(0-t) / half-life / Vd: plasma; for Vd: read-out: Vss
Procedure: as §1

mTOR (h) = molecular target: T1, mTOR (h) (Homo sapiens, UniProt P42345); assay: mTOR (h) kinase assay (33P-ATP, filter); type: biochemical
T1 construct: purchased Millipore UK Ltd (assay service)
Procedure: mTOR (h) is incubated with 50 mM HEPES pH 7.5, 1 mM EDTA, 0.01% Tween 20, 2 mg/mL substrate, 3 mM Manganese Chloride and [γ-^33P-ATP] (specific activity approx. 500 cpm/pmol, concentration as required). The reaction is initiated by the addition of the MnATP mix. After incubation for 40 minutes at room temperature, the reaction is stopped by the addition of 3% phosphoric acid solution. 10 μL of the reaction is then spotted onto a P30 filtermat and washed three times for 5 minutes in 75 mM phosphoric acid and once in methanol prior to drying and scintillation counting.
(§2) The kinase assays described herein were performed at Millipore UK Ltd, Dundee Technology Park, Dundee DD2 1SW, UK.

PI3K p110α/p85α (h) = molecular target: T2, PI3K p110α/p85α (h) (Homo sapiens, UniProt P42336); assay: PI3K p110α/p85α (h) non-radioactive HTRF assay; type: biochemical
T2 construct: purchased Millipore UK Ltd (assay service)
Procedure: (§3) PI3K p110α/p85α (h) is incubated in assay buffer containing 10 μM phosphatidylinositol 4,5-bisphosphate and MgATP (concentration as required). The reaction is initiated by the addition of the ATP solution. After incubation for 30 minutes at room temperature, the reaction is stopped by the addition of stop solution containing EDTA and biotinylated phosphatidylinositol-3,4,5-trisphosphate. Finally, detection buffer is added, which contains europium-labelled anti-GST monoclonal antibody, GST-tagged GRP1 PH domain and streptavidin allophycocyanin. The plate is then read in timeresolved fluorescence mode and the homogenous time-resolved fluorescence (HTRF) signal is determined according to the formula HTRF=10000×(Em665 nm/Em620 nm).
as §2

U87MG glioblastoma cells = assay: Tumor xenograft model (U87MG), tumor growth inhibition; type: in vivo, athymic nude mice
Procedure: The efficacy of compounds disclosed herein was evaluated in a standard murine model of tumorigenesis. Human tumor cells (U87MG glioblastoma cells from ATCC) were expended in culture, harvested, and injected subcutaneously onto the rear flank of 6-7 week old female athymic nude mice (BALB/cA nu/nu, Hunan SLAC Laboratory Animal, Co.) (n=6-10 for vehicle group and for each dosing group). When tumors reached a volume of 100-250 mm^3, animals were randomly divided into vehicle control (for example, 5% DMSO+70% Captisol® (30%), 7% HCl (pH1), 18% Captisol® (30%); or 7% DMSO, 7% HCl (pH1), 70% Captisol® (30%), 16% Captisol® (30%), or the like) and compound groups. Subsequent administration of compound by oral gavage begins anywhere from day 0 to day 15 post tumor cell challenge and generally continues with once a day for the duration of the experiment.
Progression of tumor growth is assessed by tumor volumes and recorded as a function of time. The long (L) and short (W) axes of the subcutaneous tumors were measured with calipers twice weekly, and the tumor volume (TV) calculated as (L×W^2)/2). TGI was calculated from the difference between the median tumor volumes of vehicle-treated and drug-treated mice, expressed as a percentage of the median tumor volume of the vehicle-treated control group, by the following relation:
Initial statistical analysis is done by repeated measures analysis of variance (RMANOVA), followed by Scheffe psot hoc testing for multiple comparisons. Vehicle alone (5% DMSO+70% Captisol® (30%), 7% HCl (pH1), 18% Captisol® (30%); or 7% DMSO, 7% HCl (pH1), 70% Captisol® (30%), 16% Captisol® (30%), or the like) is the negative control.

PI3K (p120γ) (h) = molecular target: T3, PI3K (p120γ) (h) (Homo sapiens, UniProt P48736); assay: PI3K p120γ (h) non-radioactive HTRF assay; type: biochemical
T3 construct: purchased Millipore UK Ltd (assay service)
Procedure: as §3, with “(p120γ)” for “p110α/p85α”, “phosphatidylinositol-4,5-bisphosphate” for “phosphatidylinositol 4,5-bisphosphate”, “MgATP mix.” for “ATP solution.”, “streptavidin-allophycocyanin.” for “streptavidin allophycocyanin.”
as §2

T3 sequence (P48736 whole entry): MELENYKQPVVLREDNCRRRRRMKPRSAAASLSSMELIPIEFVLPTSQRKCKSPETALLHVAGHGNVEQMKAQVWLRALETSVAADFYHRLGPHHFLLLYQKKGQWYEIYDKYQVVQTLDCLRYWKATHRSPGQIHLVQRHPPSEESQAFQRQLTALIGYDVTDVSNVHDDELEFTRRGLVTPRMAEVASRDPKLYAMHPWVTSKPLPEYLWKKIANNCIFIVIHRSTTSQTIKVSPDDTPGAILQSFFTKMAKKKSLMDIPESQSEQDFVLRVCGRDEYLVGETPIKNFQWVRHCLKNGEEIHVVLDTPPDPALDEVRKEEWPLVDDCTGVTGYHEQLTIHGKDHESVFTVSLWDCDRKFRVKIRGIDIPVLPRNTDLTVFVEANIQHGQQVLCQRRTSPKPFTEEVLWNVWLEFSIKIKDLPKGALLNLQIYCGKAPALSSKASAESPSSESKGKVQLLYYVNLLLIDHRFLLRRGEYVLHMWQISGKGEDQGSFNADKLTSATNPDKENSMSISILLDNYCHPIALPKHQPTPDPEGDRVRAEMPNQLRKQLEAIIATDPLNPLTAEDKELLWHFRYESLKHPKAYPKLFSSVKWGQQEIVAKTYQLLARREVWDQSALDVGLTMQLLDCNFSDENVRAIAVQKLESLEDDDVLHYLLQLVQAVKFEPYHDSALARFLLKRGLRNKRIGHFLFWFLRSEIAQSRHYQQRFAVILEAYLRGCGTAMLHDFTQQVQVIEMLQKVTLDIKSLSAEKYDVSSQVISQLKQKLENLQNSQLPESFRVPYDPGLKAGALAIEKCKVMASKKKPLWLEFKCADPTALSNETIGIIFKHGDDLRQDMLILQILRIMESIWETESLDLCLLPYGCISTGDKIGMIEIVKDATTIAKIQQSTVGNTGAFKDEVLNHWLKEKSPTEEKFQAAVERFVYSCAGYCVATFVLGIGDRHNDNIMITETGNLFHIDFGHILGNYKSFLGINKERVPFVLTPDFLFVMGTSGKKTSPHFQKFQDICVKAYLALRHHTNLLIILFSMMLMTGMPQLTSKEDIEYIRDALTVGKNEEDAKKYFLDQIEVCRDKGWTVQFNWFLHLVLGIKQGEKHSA
T2 sequence (P42336 whole entry): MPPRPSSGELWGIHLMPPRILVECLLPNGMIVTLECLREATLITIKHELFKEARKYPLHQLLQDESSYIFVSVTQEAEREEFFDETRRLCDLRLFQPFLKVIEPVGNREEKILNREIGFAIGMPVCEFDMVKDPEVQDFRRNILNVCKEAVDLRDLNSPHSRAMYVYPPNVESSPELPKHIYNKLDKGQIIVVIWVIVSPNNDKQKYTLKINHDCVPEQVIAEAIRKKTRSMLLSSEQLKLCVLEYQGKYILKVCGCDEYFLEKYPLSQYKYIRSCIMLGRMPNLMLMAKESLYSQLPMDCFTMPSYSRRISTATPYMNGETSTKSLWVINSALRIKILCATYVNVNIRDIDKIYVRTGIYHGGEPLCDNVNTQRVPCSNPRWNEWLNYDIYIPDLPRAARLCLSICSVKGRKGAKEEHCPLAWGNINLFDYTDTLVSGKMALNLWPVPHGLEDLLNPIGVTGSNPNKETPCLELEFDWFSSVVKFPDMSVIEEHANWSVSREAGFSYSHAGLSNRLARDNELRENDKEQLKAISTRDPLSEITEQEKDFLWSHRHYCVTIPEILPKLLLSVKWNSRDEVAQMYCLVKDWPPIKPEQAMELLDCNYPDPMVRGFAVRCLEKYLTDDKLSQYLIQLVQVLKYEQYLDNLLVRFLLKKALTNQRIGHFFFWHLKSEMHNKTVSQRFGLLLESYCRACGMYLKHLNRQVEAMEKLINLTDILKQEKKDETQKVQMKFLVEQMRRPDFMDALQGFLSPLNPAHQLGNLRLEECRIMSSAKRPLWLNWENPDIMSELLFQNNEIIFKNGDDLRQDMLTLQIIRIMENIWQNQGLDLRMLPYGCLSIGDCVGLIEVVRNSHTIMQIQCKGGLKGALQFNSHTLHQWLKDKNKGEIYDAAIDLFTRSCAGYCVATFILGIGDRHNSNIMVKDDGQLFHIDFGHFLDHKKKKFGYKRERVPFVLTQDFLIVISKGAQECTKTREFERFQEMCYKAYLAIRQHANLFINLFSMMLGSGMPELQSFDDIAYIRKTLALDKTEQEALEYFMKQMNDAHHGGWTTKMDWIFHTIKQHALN
T2 sequence (P27986 whole entry partner): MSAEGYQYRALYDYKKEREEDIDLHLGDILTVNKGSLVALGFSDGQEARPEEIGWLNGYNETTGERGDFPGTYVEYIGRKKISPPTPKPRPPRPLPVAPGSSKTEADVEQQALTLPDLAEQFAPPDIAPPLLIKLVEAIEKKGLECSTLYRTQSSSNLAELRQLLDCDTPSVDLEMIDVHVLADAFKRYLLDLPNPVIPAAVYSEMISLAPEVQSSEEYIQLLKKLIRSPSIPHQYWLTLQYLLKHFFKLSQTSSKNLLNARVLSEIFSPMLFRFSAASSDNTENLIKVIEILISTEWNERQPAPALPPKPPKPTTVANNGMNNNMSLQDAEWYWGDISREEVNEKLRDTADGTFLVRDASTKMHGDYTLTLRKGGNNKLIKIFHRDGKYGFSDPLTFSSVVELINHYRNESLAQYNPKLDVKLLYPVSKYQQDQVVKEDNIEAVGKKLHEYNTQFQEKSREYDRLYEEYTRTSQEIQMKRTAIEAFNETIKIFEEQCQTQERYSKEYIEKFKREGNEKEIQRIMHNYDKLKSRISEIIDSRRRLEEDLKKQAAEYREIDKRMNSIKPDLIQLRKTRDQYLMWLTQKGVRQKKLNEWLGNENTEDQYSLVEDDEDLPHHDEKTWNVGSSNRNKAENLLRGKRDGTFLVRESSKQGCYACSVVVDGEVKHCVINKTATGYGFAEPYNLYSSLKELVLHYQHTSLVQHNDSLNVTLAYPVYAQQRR

COc1ncc(-c2ccc3ncc(C#CCO)n3n2)cc1NS(=O)(=O)c1ccc(F)cc1F [Ex. 9, 2,4-difluoro-N-(5-(3-(3-hydroxyprop-1-yn-1-yl)imidazo[1,2-b]pyridazin-6-yl)-2-methoxypyridin-3-yl)benzenesulfonamide]
F ([1]; iv dose 2 mg/kg): 118.7% | Cl/F ([1]; iv dosing 2 mg/kg): 6.17 mL/min/kg | AUC(0-t) ([1]; iv dosing 2 mg/kg): 5330 ng·h/mL | half-life ([1]; iv dosing 2 mg/kg): 4.02 h | Vd ([1]; iv dosing 2 mg/kg): 0.57 L/kg | F [2]: 44.2% | Clearance (CL) [2]: 6.17 mL/min/kg | AUC(0-t) [2]: 2750 ng·h/mL | half-life [2]: 0.73 h | Vd [2]: 0.31 L/kg | IC50 (mTOR (h)): 9 nM | IC50 (PI3K p110α/p85α (h)): 2 nM | TGI % U87MG (U87MG glioblastoma cells; 1 mg/kg oral gavage, 12 days): 23% | TGI % U87MG (U87MG glioblastoma cells; 3 mg/kg oral gavage, 12 days): 26% | TGI % U87MG (U87MG glioblastoma cells; 10 mg/kg oral gavage, 12 days): 62%

COc1ncc(-c2ccc3ncc(C#CCO)n3c2)cc1NS(=O)(=O)c1ccc(F)cc1F [Ex. 15, 2,4-difluoro-N-(5-(3-(3-hydroxyprop-1-yn-1-yl)imidazo[1,2-a]pyridin-6-yl)-2-methoxypyridin-3-yl)benzenesulfonamide]
F ([1]; iv dose 1 mg/kg): 116.9% | AUC(0-t) ([1]; iv dosing 1 mg/kg): 20000 ng·h/mL | half-life ([1]; iv dosing 1 mg/kg): 2.83 h | F [2]: 108.5% | Clearance (CL) [2]: 7.67 mL/min/kg | AUC(0-t) [2]: 2170 ng·h/mL | half-life [2]: 0.74 h | Vd [2]: 0.37 L/kg | IC50 (mTOR (h)): 34 nM | IC50 (PI3K p110α/p85α (h)): 2 nM | IC50 (PI3K (p120γ) (h)): 37 nM | TGI % U87MG (U87MG glioblastoma cells; 3 mg/kg oral gavage, 12 days): 28% | TGI % U87MG (U87MG glioblastoma cells; 10 mg/kg oral gavage, 12 days): 51%

COc1ncc(-c2ccc3ncc(C#CC(C)O)n3c2)cc1NS(=O)(=O)c1ccc(F)cc1F (stereo not shown) [Ex. 16, 2,4-difluoro N (5 (3 (3 hydroxybut-1-yn-1-yl)imidazo[1,2-a]pyridin-6-yl)-2-methoxypyridin-3-yl)benzenesulfonamide]
IC50 (mTOR (h)): 31 nM | IC50 (PI3K p110α/p85α (h)): 2 nM | IC50 (PI3K (p120γ) (h)): 5 nM | TGI % U87MG (U87MG glioblastoma cells; 3 mg/kg oral gavage, 12 days): 14% | TGI % U87MG (U87MG glioblastoma cells; 10 mg/kg oral gavage, 12 days): 43%

COc1ncc(-c2ccc3ncc(C#N)n3n2)cc1NS(=O)(=O)c1ccc(F)cc1F [Ex. 24, N-(5-(3-cyanoimidazo[1,2-b]pyridazin-6-yl)-2-methoxypyridin-3-yl)-2,4-difluorobenzenesulfonamide]
F ([1]; iv dose 2 mg/kg): 72.6% | Cl/F ([1]; iv dosing 2 mg/kg): 0.33 mL/min/kg | AUC(0-t) ([1]; iv dosing 2 mg/kg): 96100 ng·h/mL | half-life ([1]; iv dosing 2 mg/kg): 5.25 h | Vd ([1]; iv dosing 2 mg/kg): 0.14 L/kg | F [2]: 108.5% | Clearance (CL) [2]: 9 mL/min/kg | AUC(0-t) [2]: 1840 ng·h/mL | half-life [2]: 0.57 h | Vd [2]: 0.37 L/kg | IC50 (mTOR (h)): 3 nM | IC50 (PI3K p110α/p85α (h)): 2 nM | IC50 (PI3K (p120γ) (h)): 4 nM | TGI % U87MG (U87MG glioblastoma cells; 0.3 mg/kg oral gavage, 9 days): 53% | TGI % U87MG (U87MG glioblastoma cells; 1 mg/kg oral gavage, 9 days): 84% | TGI % U87MG (U87MG glioblastoma cells; 3 mg/kg oral gavage, 9 days): 108%
